Assay results reported in article PMC4102417 (PLoS Neglected Tropical Diseases, 2014).
pEC50: −log10 of the molar value. Entries after “also recorded” stand apart in the source; their conditions may differ. Counter-ions that a name gives are not always drawn. Like-named read-outs stand apart in the source and are kept apart here.

Columns and labels:
[1] = test system: T. cruzi (Tulahuen strain); assay: microbe, parasite or virus in culture; type: cell-based, Trypanosoma cruzi; settings: for pEC50: read-out: T. cruzi EC50; for activity at 10 µM: read-out: T. cruzi % growth @ 10 uM (Amastigotes)
Summary of the method: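 Tulahuen parasites expressing beta-galactosidase were added (1×10^4 trypomastigotes/well) to 3T3 fibroblasts plated 24 h earlier, 4 h before compound (10 µM final).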

[2] = in vitro; type: cell-based, murine; settings: mouse
[3] = test system: T. cruzi (Tulahuen strain); assay: Mouse model of acute T. cruzi infection; type: in vivo, BALB/c mice; settings: oral gavage days 7-11 post-infection, doses of Table 5
Description: Age 8–10 week-old BALB/c female mice were obtained from Harlan Laboratories. Mice were infected with 1×10^4 tissue culture derived wild-type trypomastigotes of the Tulahuen strain by subcutaneous injection on day 0. They were administered test drugs in groups of five by oral gavage on days 7–11. All drugs were dissolved in vehicle composed of sodium carboxymethylcellulose 0.5% w/v, benzyl alcohol 0.5% v/v, Tween 80 0.4% v/v diluted in 0.9% aqueous NaCl solution. Parasitemia was quantified by examining tail blood specimens at times points indicated in Figures 2, 3, S4, and S5 as previously described.
Selected drugs identified in the above screens were tested alone or in combination in the mouse model of T. cruzi infection. In the first experiment, we focused on posaconazole and benznidazole because of their advanced clinical status for treating Chagas disease. Since benznidazole and posaconazole are known to have curative activity as monotherapies, we used sub-curative doses so that additive or synergistic interactions could be detected when used in combinations. The other drugs were administered at doses described in the literature for treating mice. Briefly, mice were gavaged once or twice daily with a given drug or combination on days 7–11 post-infection. We conducted a second experiment (Figure 3) examining the same drugs with the purpose of confirming and expanding upon the initial results shown in Figure 2.

[4] = test system: 3T3 fibroblast cells; assay: in vitro; type: cell-based, murine; settings: for CC50: 3T3 fibroblasts, 72 hours, separate assays separated by semicolons, read-out: Mammalian cell CC50; for activity at 10 µM: Mus musculus, NIH3T3, 72 h, read-out: Mammalian (3T3) cell % growth at 10 uM
[5] = Trypanosoma cruzi, TULAHUEN, Fibroblast, 120 h, intracellular amastigotes, 5 days, separate assays separated by semicolons
[6] = 3T3 fibroblasts, 72 hours, separate assays separated by semicolons, read-out: Mammalian cell CC50
[7] = Trypanosoma cruzi, TULAHUEN, Fibroblast, 120 h, 10 uM, Table S2
[8] = average mammalian cell CC50 divided by average T. cruzi EC50
[9] = intracellular amastigotes, 5 days, separate assays separated by semicolons

Structure (SMILES)	pEC50 [1, 5]	CC50 [2, 6]	activity at 10 µM [1, 7]	activity at 10 µM ([4]; 10 uM, Table S2)	further results
Oc1ncnc2[nH]ncc12 [Allopurinol]	5.55	> 50000 nM			Selectivity index [1]: >17.9; parasitemia [3]: slight effects
CN(C)CCC=C1c2ccccc2CCc2ccccc21 [Amitriptyline, dimethyl(3-{tricyclo[9.4.0.0^{3,8}]pentadeca-1(15),3,5,7,11,13-hexaen-2-ylidene}propyl)amine]	5.45	36300 nM	15.7%	100%	Selectivity index [1, 8]: 5.7; pEC50 [1, 9]: 5.18; CC50 [4]: 22 µM
CCOC(=O)C1=C(COCCN)NC(C)=C(C(=O)OC)C1c1ccccc1Cl.O=S(=O)(O)c1ccccc1 (stereo not drawn) [Amlodipine, 3-ethyl 5-methyl 2-[(2-aminoethoxy)methyl]-4-(2-chlorophenyl)-6-methyl-1,4-dihydropyridine-3,5-dicarboxylate; benzenesulfonic acid]	5.96		13.3%	100%	Selectivity index [1]: 11.8; CC50 ([2]; Mammalian cell CC50 (nM)): 13000 nM; parasitemia [3]: no differences compared to the vehicle treated mice; also recorded: slight effects
O=C(Cn1ccnc1[N+](=O)[O-])NCc1ccccc1 [Benznidazole]	6.19	> 25000 nM			Selectivity index [1, 8]: >40; pEC50 [1, 9]: 6.22; parasitemia [3]: some attenuation of parasitemia
CN(C)CC/C=C1/c2ccccc2Sc2ccc(Cl)cc21 [Chlorprothixene, {3-[(9Z)-2-chloro-9H-thioxanthen-9-ylidene]propyl}dimethylamine]	5.63	12900 nM	1.8%	97.1%	Selectivity index [1]: 5.2; pEC50 [1, 9]: 5.59
Cl.OC(c1cc(C(F)(F)F)nc2c(C(F)(F)F)cccc12)C1CCCCN1 (stereo not drawn) [Mefloquine, [2,8-bis(trifluoromethyl)quinolin-4-yl](piperidin-2-yl)methanol hydrochloride]	5.21	12100 nM	2.6%	94.7%	Selectivity index [1, 8]: 2.0
CN(C)c1ccc(O)c2c1CC1CC3C(N(C)C)C(O)=C(C(N)=O)C(=O)C3(O)C(O)=C1C2=O.Cl (stereo not drawn) [Minocycline, 4,7-bis(dimethylamino)-3,10,12,12a-tetrahydroxy-1,11-dioxo-1,4,4a,5,5a,6,11,12a-octahydrotetracene-2-carboxamide hydrochloride]	5.01	> 50000 nM	10.2%	83.2%	Selectivity index [1]: >5.1
NCCC(O)(P(=O)(O)O)P(=O)(O)O [Pamidronate]	5.52	25700 nM			Selectivity index [1, 8]: 8.6
Cl.Fc1ccc(C2CCNCC2COc2ccc3c(c2)OCO3)cc1 (stereo not drawn) [Paroxetine, 3-[(2H-1,3-benzodioxol-5-yloxy)methyl]-4-(4-fluorophenyl)piperidine hydrochloride]	5.48		6.8%	100%	Selectivity index [1]: 4.2; pEC50 [1, 9]: 5.25; CC50 ([2]; Mammalian cell CC50 (nM)): 18800 nM
N=C(N)c1ccc(OCCCCCOc2ccc(C(=N)N)cc2)cc1 [Pentamidine, 2-hydroxyethane-1-sulfonic acid; 4-{[5-(4-carbamimidoylphenoxy)pentyl]oxy}benzene-1-carboximidamide]	6.74	> 50000 nM	17.6%	94.8%	pEC50 ([1]; Trypanosoma cruzi, TULAHUEN, Fibroblast, Table S2, amastigotes): 6.74; Selectivity index [1, 8]: >276
CC[C@@H]([C@H](C)O)n1ncn(-c2ccc(N3CCN(c4ccc(OC[C@@H]5CO[C@@](Cn6cncn6)(c6ccc(F)cc6F)C5)cc4)CC3)cc2)c1=O [Posaconazole]					parasitemia [3]: some attenuation of parasitemia
CCC(C)(C)C(=O)OC1CC(C)C=C2C=CC(C)C(CCC3CC(O)CC(=O)O3)C21 (stereo not drawn) [Simvastatin, 8-[2-(4-hydroxy-6-oxooxan-2-yl)ethyl]-3,7-dimethyl-1,2,3,7,8,8a-hexahydronaphthalen-1-yl 2,2-dimethylbutanoate]	6.40				CC50 at 72 h [2, 6]: 4 µM
CCC(=C(c1ccccc1)c1ccc(OCCN(C)C)cc1)c1ccccc1 [TAMOXIFEN, {2-[4-(1,2-diphenylbut-1-en-1-yl)phenoxy]ethyl}dimethylamine]			22.5%	97%	
Nc1nc(=S)c2[nH]cnc2[nH]1 [THIOGUANINE, 2-amino-6,7-dihydro-3H-purine-6-thione]			14.8%	98.3%	
CCN(CC)CCOc1ccc2c(c1)C(=O)c1cc(OCCN(CC)CC)ccc1-2 [TILORONE, 2,7-bis[2-(diethylamino)ethoxy]-9H-fluoren-9-one]			7.8%	89%	
CC1CCC2(NC1)OC1CC3C4CCC5CC(O)CCC5(C)C4CCC3(C)C1C2C (stereo not drawn) [TOMATIDINE, 5',7,9,13-tetramethyl-5-oxaspiro[pentacyclo[10.8.0.0^{2,9}.0^{4,8}.0^{13,18}]icosane-6,2'-piperidine]-16-ol hydrochloride]			8.5%	100%	
CC(C)c1c(O)ccc2c1CCC1C(C)(C)CCCC21C (stereo not drawn) [TOTAROL, 4b,8,8-trimethyl-1-(propan-2-yl)-4b,5,6,7,8,8a,9,10-octahydrophenanthren-2-ol]			21.3%	67.4%	
CN1CCN(CCCN2c3ccccc3Sc3ccc(C(F)(F)F)cc32)CC1 [TRIFLUOPERAZINE, 10-[3-(4-methylpiperazin-1-yl)propyl]-2-(trifluoromethyl)-10H-phenothiazine]			20.4%	94.7%	
CC(C)c1ccc2c(c1O)CCC1C3=C(CCC21C)C(=O)OC3 (stereo not drawn) [TRIPTOPHENOLIDE, 6-hydroxy-1-methyl-5-(propan-2-yl)-13-oxatetracyclo[8.7.0.0^{2,7}.0^{11,15}]heptadeca-2,4,6,11(15)-tetraen-14-one]			13.8%	83.1%	
CN(C/C=C/C#CC(C)(C)C)Cc1cccc2ccccc12 [Terbinafine]	4.76	51000 nM			Selectivity index [1]: 2.9
CSc1ccc2c(c1)N(CCC1CCCCN1C)c1ccccc1S2 (stereo not drawn) [Thioridazine, 10-[2-(1-methylpiperidin-2-yl)ethyl]-2-(methylsulfanyl)-10H-phenothiazine]		6200 nM	19.1%	45.7%	CC50 [4]: 8.66 µM
COC(=O)CC1C(C)(C)C(OC(C)=O)C2C(OC(C)=O)C34OC2(O)C1(C)C3CCC1(C)C4=CC(=O)OC1c1ccoc1 (stereo not drawn) [[…], methyl 2-[14,18-bis(acetyloxy)-6-(furan-3-yl)-16-hydroxy-7,11,13,13-tetramethyl-4-oxo-5,17-dioxapentacyclo[13.2.1.0^{1,10}.0^{2,7}.0^{11,16}]octadec-2-en-12-yl]acetate]			7.2%	89.7%	
CC(=O)O[C@@H]1CC2C(C)(C)[C@H](O)CC[C@]2(C)C2CC[C@@]3(C)[C@H](c4ccoc4)OC(=O)C4OC43[C@@]21C (stereo partly drawn) [alpha-DIHYDROGEDUNOL]					T. cruzi % growth @ 10 uM (Amastigotes) ([1]; 10 uM, Table S2): 3.8%; Mammalian (3T3) cell % growth at 10 uM ([4]; 10 uM, Table S2): 90.8%
CC(=O)OC1CC2C(C)(C)C(O)CCC2(C)C2CCC3(C)C(c4ccoc4)OC(=O)C4OC43C12C (stereo not drawn) [beta-DIHYDROGEDUNOL, 7-(furan-3-yl)-15-hydroxy-1,8,12,16,16-pentamethyl-5-oxo-3,6-dioxapentacyclo[9.8.0.0^{2,4}.0^{2,8}.0^{12,17}]nonadecan-19-yl acetate]			21.8%	76.3%	
C=C1C2CCC3(C)C(c4ccoc4)OC(=O)CC13OC1CC(OC(C)=O)C(C)(C)C(CC(=O)OC)C12C (stereo not drawn) [methyl 2-[5-(acetyloxy)-13-(furan-3-yl)-6,6,8,12-tetramethyl-17-methylidene-15-oxo-2,14-dioxatetracyclo[7.7.1.0^{1,12}.0^{3,8}]heptadecan-7-yl]acetate]			1%	84.1%	
COC(=O)c1cc(O)c(=O)c2c(O)c(O)ccc2c1 [methyl 3,4,6-trihydroxy-5-oxo-5H-benzo[7]annulene-8-carboxylate]			18.2%	92.2%	
